ChEMBL document CHEMBL4706484, “Apigenin-rivastigmine hybrids as multi-target-directed liagnds for the treatment of Alzheimer's disease” (Eur J Med Chem, 2020)
The source made the active and inactive calls. The calls are words filed in the database; no cut-off is given here.

Legend:
[1] = species on record: Danio rerio; assay: Antialzheimer activity against 3 dpf zebrafish model of AlCl3-induced AD assessed as efficacy on motility distance at 1.4 ug/ml relative to control; format: functional; conditions: dose 1.4 µg/ml
[2] = target: T1, Cholinesterase (Homo sapiens, UniProt P06276); assay: Pseudo-irreversible inhibition of human serum BChE assessed as enzyme recovery activity at 0.1 times IC50 measured immediately using diluted compound; format: cell-free; design: scale not given: the % may be the effect or the level left
[3] = system: Mus musculus; assay: Reversal of scopolamine-induced Kunming mouse model of memory impairment assessed as spontaneous alteration at 20 mg/kg by Y-maze test (reference value: 41.6 %); format: functional
[4] = Acute toxicity in 2 dpf zebrafish assessed as degenerating trunk muscle within somite at 1.39 to 12.5 ug/ml measured after 3 days; format: tissue-based, Danio rerio; conditions: in vivo, 72 h, dose 1.39-12.5 µg/ml, time 3 day
[5] = Antioxidant activity of compound assessed as trolox equivalent antioxidant capacity by ORAC-FL assay; format: functional
[6] = system: L02; assay: Hepatoprotective activity H2O2-induced cell injury in human L02 cells assessed as cell viability at 10 uM measured after 48 hrs by MTT assay (reference value: 56.89 %); format: functional; conditions: read-out: Activity
[7] = Acute toxicity in 2 dpf zebrafish assessed as yolk sac absorption delay at 1.39 ug/ml measured after 3 days; design: species or system Danio rerio; conditions: in vivo, 72 h, dose 1.39 µg/ml, time 3 day
[8] = Acute toxicity in Kunming mouse assessed as abnormal behavior at 1000 mg/kg; format: organism-based; conditions: in vivo
[9] = Acute toxicity in Kunming mouse assessed as hypokinesia at 2000 mg/kg; format: organism-based; conditions: in vivo
[10] = Acute toxicity in 2 dpf zebrafish assessed as abnormal intestine at 1.39 to 12.5 ug/ml measured after 3 days; format: tissue-based, Danio rerio; conditions: in vivo, 72 h, dose 1.39-12.5 µg/ml, time 3 day
[11] = Acute toxicity in 2 dpf zebrafish assessed as kidney edema at 1.39 to 12.5 ug/ml measured after 3 days; design: species or system Danio rerio; conditions: in vivo, 72 h, dose 1.39-12.5 µg/ml, time 3 day
[12] = Acute toxicity in 2 dpf zebrafish assessed as yolk sac absorption delay at 4.17 ug/ml measured after 3 days relative to control; design: species or system Danio rerio; conditions: in vivo, 72 h, at 4.17 µg/mL, time 3 day
[13] = Inhibition of copper-induced amyloid beta (1 to 42) (unknown origin) aggregation measured after 24 hrs by TEM analysis
[14] = Cytotoxicity against human L02 cells assessed as cell viability at 25 uM measured after 72 hrs by MTT assay relative to control; format: cell-based; conditions: read-out: Activity
[15] = Metal chelating activity assessed as compound-Cu2+ complex stoichiometry ratio of 1:1 at 37.5 uM in presence of CuCl2 by UV-visible spectrophotometric analysis
[16] = Acute toxicity in 2 dpf zebrafish assessed as death at 1.25 to 20 ug/ml measured after 3 days; design: species or system Danio rerio; conditions: in vivo, 72 h, dose 1.25-20 µg/ml, time 3 day
[17] = Toxicity in 2 dpf zebrafish at 1.39 ug/ml measured after 3 days; design: species or system Danio rerio; conditions: in vivo, 72 h, dose 1.39 µg/ml, time 3 day
[18] = system: Mus musculus; assay: Antialzheimer activity in scopolamine-induced Kunming mouse model of memory impairment assessed as GC bases ratio (QC data) in brain hippocampus at 10 mg/kg by illumina sequencing method (reference value: 53.64 %); format: functional
[19] = species on record: Danio rerio; assay: Antialzheimer activity against 3 dpf zebrafish model of AlCl3-induced AD assessed as change in motility distance at 4.2 ug/ml (reference value: 5204 mm); format: functional; conditions: dose 4.2 µg/ml
[20] = Acute toxicity in 2 dpf zebrafish assessed as abnormal tail at 1.39 to 12.5 ug/ml measured after 3 days; design: species or system Danio rerio; conditions: in vivo, 72 h, dose 1.39-12.5 µg/ml, time 3 day
[21] = Disaggregation of Copper-induced amyloid beta (1 to 42) (unknown origin) preformed fibrils measured after 48 hrs by TEM analysis
[22] = Acute toxicity in 2 dpf zebrafish assessed as death at 1.39 to 12.5 ug/ml measured after 3 days; design: species or system Danio rerio; conditions: in vivo, 72 h, dose 1.39-12.5 µg/ml, time 3 day
[23] = species on record: Danio rerio; assay: Antialzheimer activity against 3 dpf zebrafish model of AlCl3-induced AD assessed as change in motility distance at 1.4 ug/ml (reference value: 5204 mm); format: functional; conditions: dose 1.4 µg/ml
[24] = Drug metabolism in rat liver microsomes assessed as metabolite formation by UPLC-MS/MS analysis; format: ADME, Microsome
[25] = Cytotoxicity against human L02 cells assessed as cell viability at 12.5 uM measured after 72 hrs by MTT assay relative to control; format: cell-based; conditions: read-out: Activity
[26] = target: Butyrylcholinesterase (Rattus norvegicus, UniProt Q9JKC1); assay: Inhibition of rat serum BChE using acetylthiocholine iodide as substrate measured after 15 mins by Ellman's method; format: cell-free
[27] = system: Mus musculus; assay: Antialzheimer activity in scopolamine-induced Kunming mouse model of memory impairment assessed as Q30 bases ratio (QC data) in brain hippocampus at 10 mg/kg by illumina sequencing method (reference value: 96.67 %); format: functional
[28] = Inhibition of copper-induced amyloid beta (1 to 42) (unknown origin) aggregation at 25 uM by ThT fluorescence assay relative to control
[29] = target: T1, Cholinesterase; assay: Pseudo-irreversible inhibition of human serum BChE assessed as enzyme recovery activity at IC50 using undiluted compound relative to control; format: cell-free; design: scale not given: the % may be the effect or the level left
[30] = Disaggregation of Copper-induced amyloid beta (1 to 42) (unknown origin) preformed fibrils at 25 uM by ThT fluorescence assay relative to control
[31] = species on record: Danio rerio; assay: Antialzheimer activity against 3 dpf zebrafish model of AlCl3-induced AD assessed as efficacy on motility distance at 12.5 ug/ml relative to control; format: functional; conditions: dose 12.5 µg/ml

T1 sequence (P06276 whole entry): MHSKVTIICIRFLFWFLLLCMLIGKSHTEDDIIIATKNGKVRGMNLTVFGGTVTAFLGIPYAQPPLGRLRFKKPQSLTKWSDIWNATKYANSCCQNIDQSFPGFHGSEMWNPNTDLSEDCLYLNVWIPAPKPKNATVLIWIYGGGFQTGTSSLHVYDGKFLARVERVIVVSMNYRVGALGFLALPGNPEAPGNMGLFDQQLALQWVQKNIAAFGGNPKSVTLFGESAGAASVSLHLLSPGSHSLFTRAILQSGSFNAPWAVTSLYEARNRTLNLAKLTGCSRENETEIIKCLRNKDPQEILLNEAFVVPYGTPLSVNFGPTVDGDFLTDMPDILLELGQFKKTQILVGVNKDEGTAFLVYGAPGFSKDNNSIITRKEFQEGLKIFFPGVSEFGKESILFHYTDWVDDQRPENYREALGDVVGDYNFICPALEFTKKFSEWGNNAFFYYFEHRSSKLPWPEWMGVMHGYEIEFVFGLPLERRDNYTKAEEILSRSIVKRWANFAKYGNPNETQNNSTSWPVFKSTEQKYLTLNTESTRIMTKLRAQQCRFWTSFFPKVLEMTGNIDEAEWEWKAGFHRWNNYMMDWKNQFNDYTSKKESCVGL
Sequence of Butyrylcholinesterase (Q9JKC1 whole entry): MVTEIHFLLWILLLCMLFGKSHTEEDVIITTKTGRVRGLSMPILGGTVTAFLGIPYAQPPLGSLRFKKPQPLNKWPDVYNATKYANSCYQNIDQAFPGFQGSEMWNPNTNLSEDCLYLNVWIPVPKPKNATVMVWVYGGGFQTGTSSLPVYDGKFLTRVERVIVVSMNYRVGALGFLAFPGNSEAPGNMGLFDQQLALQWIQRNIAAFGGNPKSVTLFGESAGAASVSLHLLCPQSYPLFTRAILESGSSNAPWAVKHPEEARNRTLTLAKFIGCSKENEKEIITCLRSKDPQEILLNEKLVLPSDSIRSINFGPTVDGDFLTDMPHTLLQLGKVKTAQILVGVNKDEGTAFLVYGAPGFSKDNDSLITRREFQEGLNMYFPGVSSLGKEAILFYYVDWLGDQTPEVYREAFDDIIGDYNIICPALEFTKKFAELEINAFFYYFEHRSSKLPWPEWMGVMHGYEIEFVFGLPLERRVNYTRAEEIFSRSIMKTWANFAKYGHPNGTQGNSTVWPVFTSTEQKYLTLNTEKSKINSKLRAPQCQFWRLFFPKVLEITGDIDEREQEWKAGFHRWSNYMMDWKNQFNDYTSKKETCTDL

Compound `CCN(C)C(=O)Oc1ccc(-c2cc(=O)c3c(O)cc(OC(=O)N(C)CC)cc3o2)cc1` has an Efficacy [1] of 59%, an Activity [2] of 44.8% and an Activity [3] of 57.1%. The Activity [4] was “Non-Toxic”, the Activity [5] was 1.3 equiv and the viability at 10 µM [6] was 75.6%. For the same compound, the Activity [7] was “Non-Toxic”, the Activity [8] was “Non-Toxic” and the Activity [9] was “Toxic”. The Activity [10] was “Non-Toxic”, the Activity [11] was “Non-Toxic” and the Activity [12] was 33.3%. The inhibition [13] was “Active”, the viability at 72 h, 25 µM [14] was 83.9% and the Activity [15] was “Active”. For the same compound, the Activity [16] was “Non-Toxic”, the Activity [17] was “Non-Toxic” and the Activity [18] was 60.72%. The Activity [19] was 6562 mm, the Activity [20] was “Non-Toxic” and the Activity [21] was “Active”. The Activity [22] was “Non-Toxic”, the Activity [23] was 6432 mm and the Drug metabolism [24] was “Metabolite_Detected”. It also gave a viability at 72 h, 12.5 µM [25] of 95.6%, an IC50 [26] of 12.1 µM and an Activity [27] of 96.43%. It also gave an inhibition [28] of 78.9%, an Activity [29] of 50.6% and an Activity [30] of 64.6%. The Efficacy [31] was 73%.
